Patent US20100095387A1, “METHODS AND REAGENTS FOR SCREENING NEW DRUGS AND FOR TREATING ION PUMP ASSOCIATED DISORDERS AND DISEASES” (priority 2005, published 2010)

Tests used:
α3Na+/K+-ATPase = α3Na+/K+-ATPase (Mus musculus, UniProt Q6PIC6); assay: Na+ imaging (SBFI-AM) of cultured cortical cells; format: cell-based; details: fragment or ouabain alone; neurons
[1] = system: layer V neurons in acute cortical slices; assay: Whole cell current clamp of layer V neurons in acute cortical slices; format: cell-based, mouse

## C[C@@H]1O[C@@H](O[C@H]2C[C@@H](O)[C@]3(CO)[C@H]4[C@H](O)C[C@]5(C)[C@@H](C6=CC(=O)OC6)CC[C@]5(O)[C@@H]4CC[C@]3(O)C2)[C@H](O)[C@H](O)[C@H]1O [ouabain, reference compound]
α3Na+/K+-ATPase
  neuronal intracellular Na+: increase

## C=C(C)[C@H]1CN[C@H](C(=O)O)[C@H]1CC(=O)O [kainic acid, reference compound]
[1]
  action potential frequency: 0.6±0.2 Hz
  membrane potential: −56.2±1.3 mV
